Earlier results, collected in patent US20170101678A1, “METHOD FOR SCREENING RISK OF DRUG-INDUCED TOXICITY” (RESEARCH CENTER FOR BIOTECHNOLOGY AND MEDICINE POLICY, priority 2014, published 2017).
Read-outs that look alike come from different tables or passages of the source.

Settings: patients treated with INH

## NNC(=O)c1ccncc1 [INH, Isoniazid]
CYP2E1 1A/1A genotype
  patients developing hepatitis or increased liver readings: 39%
CYP2E1 1A/1B genotype
  patients developing hepatitis or increased liver readings: 15%
